In ChEMBL document CHEMBL5154747, “Discovery of new carbonic anhydrase IX inhibitors as anticancer agents by toning the hydrophobic and hydrophilic rims of the active site to encounter the dual-tail approach” (Eur J Med Chem, 2022):
pKi: −log10 of the molar value.

What follows are molecules tested against Carbonic anhydrase 9 (Homo sapiens, UniProt Q16790) (assay: Inhibition of recombinant human CA 9 preincubated for 15 mins by phenol red dye based stopped flow CO2 hydration assay). Conditions: not given.
For NS(=O)(=O)c1ccc(Nc2nc(N/N=C/c3cccs3)nc(Nc3ccccc3)n2)cc1, the pKi was 6.59.

What follows are molecules tested on CCRF-CEM (assay: Anticancer activity against human CCRF-CEM cells assessed as cell growth inhibition at 10 uM incubated for 48 hrs by SRB assay relative to control). Conditions: read-out: GI.
Assay type: functional
With NS(=O)(=O)c1ccc(Nc2nc(N/N=C/c3cccs3)nc(Nc3ccccc3)n2)cc1 the inhibition of growth at 10 µM was 68%.

What follows are molecules tested on HL-60(TB) (assay: Anticancer activity against human HL-60(TB) cells assessed as cell growth inhibition at 10 uM incubated for 48 hrs by SRB assay relative to control). Conditions: read-out: GI.
Assay type: functional
In the case of NS(=O)(=O)c1ccc(Nc2nc(N/N=C/c3cccs3)nc(Nc3ccccc3)n2)cc1, the inhibition of growth at 10 µM was 29%.

Each molecule was assayed on K562 (assay: Anticancer activity against human K562 cells assessed as cell growth inhibition at 10 uM incubated for 48 hrs by SRB assay relative to control). Conditions: read-out: GI.
Assay type: functional
Molecule NS(=O)(=O)c1ccc(Nc2nc(N/N=C/c3cccs3)nc(Nc3ccccc3)n2)cc1 has an inhibition of growth at 10 µM of 39%.

Each molecule was assayed on RPMI-8226 (assay: Anticancer activity against human RPMI-8226 cells assessed as cell growth inhibition at 10 uM incubated for 48 hrs by SRB assay relative to control). Conditions: read-out: GI.
Assay type: functional
Work on NS(=O)(=O)c1ccc(Nc2nc(N/N=C/c3cccs3)nc(Nc3ccccc3)n2)cc1 yielded an inhibition of growth at 10 µM of 47%.

What follows are molecules tested on SR (assay: Anticancer activity against human SR cells assessed as cell growth inhibition at 10 uM incubated for 48 hrs by SRB assay relative to control). Conditions: read-out: GI.
Assay type: functional
NS(=O)(=O)c1ccc(Nc2nc(N/N=C/c3cccs3)nc(Nc3ccccc3)n2)cc1 showed an inhibition of growth at 10 µM of 52%.

What follows are molecules tested on EKVX (assay: Anticancer activity against human EKVX cells assessed as cell growth inhibition at 10 uM incubated for 48 hrs by SRB assay relative to control). Conditions: read-out: GI.
Assay type: functional
Molecule NS(=O)(=O)c1ccc(Nc2nc(N/N=C/c3cccs3)nc(Nc3ccccc3)n2)cc1 has an inhibition of growth at 10 µM of 24%.

The molecules below were run on HOP-92 (assay: Anticancer activity against human HOP-92 cells assessed as cell growth inhibition at 10 uM incubated for 48 hrs by SRB assay relative to control). Conditions: read-out: GI.
Assay type: functional
Molecule NS(=O)(=O)c1ccc(Nc2nc(N/N=C/c3cccs3)nc(Nc3ccccc3)n2)cc1 has an inhibition of growth at 10 µM of 44%.

These molecules were tested on NCI-H23 (assay: Anticancer activity against human NCI-H23 cells assessed as cell growth inhibition at 10 uM incubated for 48 hrs by SRB assay relative to control). Conditions: read-out: GI.
Assay type: functional
For NS(=O)(=O)c1ccc(Nc2nc(N/N=C/c3cccs3)nc(Nc3ccccc3)n2)cc1, the inhibition of growth at 10 µM was 19%.

What follows are molecules tested on NCI-H460 (assay: Anticancer activity against human NCI-H460 cells assessed as cell growth inhibition at 10 uM incubated for 48 hrs by SRB assay relative to control). Conditions: read-out: GI.
Assay type: functional
Work on NS(=O)(=O)c1ccc(Nc2nc(N/N=C/c3cccs3)nc(Nc3ccccc3)n2)cc1 yielded an inhibition of growth at 10 µM of 31%.

What follows are molecules tested on NCI-H522 (assay: Anticancer activity against human NCI-H522 cells assessed as cell growth inhibition at 10 uM incubated for 48 hrs by SRB assay relative to control). Conditions: read-out: GI.
Assay type: functional
Molecule NS(=O)(=O)c1ccc(Nc2nc(N/N=C/c3cccs3)nc(Nc3ccccc3)n2)cc1 has an inhibition of growth at 10 µM of 20%.

These molecules were tested on COLO 205 (assay: Anticancer activity against human COLO 205 cells assessed as cell growth inhibition at 10 uM incubated for 48 hrs by SRB assay relative to control). Conditions: read-out: GI.
Assay type: functional
Work on NS(=O)(=O)c1ccc(Nc2nc(N/N=C/c3cccs3)nc(Nc3ccccc3)n2)cc1 yielded an inhibition of growth at 10 µM of 18%.

These molecules were tested on HCC 2998 (assay: Anticancer activity against human HCC 2998 cells assessed as cell growth inhibition at 10 uM incubated for 48 hrs by SRB assay relative to control). Conditions: read-out: GI.
Assay type: functional
For NS(=O)(=O)c1ccc(Nc2nc(N/N=C/c3cccs3)nc(Nc3ccccc3)n2)cc1, the inhibition of growth at 10 µM was 11%.

These molecules were tested on HCT-116 (assay: Anticancer activity against human HCT-116 cells assessed as cell growth inhibition at 10 uM incubated for 48 hrs by SRB assay relative to control). Conditions: read-out: GI.
Assay type: functional
NS(=O)(=O)c1ccc(Nc2nc(N/N=C/c3cccs3)nc(Nc3ccccc3)n2)cc1 gave an inhibition of growth at 10 µM of 74%.

These molecules were tested on HCT-15 (assay: Anticancer activity against human HCT-15 cells assessed as cell growth inhibition at 10 uM incubated for 48 hrs by SRB assay relative to control). Conditions: read-out: GI.
Assay type: functional
For NS(=O)(=O)c1ccc(Nc2nc(N/N=C/c3cccs3)nc(Nc3ccccc3)n2)cc1, the inhibition of growth at 10 µM was 14%.

Each molecule was assayed on HT-29 (assay: Anticancer activity against human HT-29 cells assessed as cell growth inhibition at 10 uM incubated for 48 hrs by SRB assay relative to control). Conditions: read-out: GI.
Assay type: functional
NS(=O)(=O)c1ccc(Nc2nc(N/N=C/c3cccs3)nc(Nc3ccccc3)n2)cc1 was tested, and the inhibition of growth at 10 µM was 29%.

Each molecule was assayed on SW-620 (assay: Anticancer activity against human SW-620 cells assessed as cell growth inhibition at 10 uM incubated for 48 hrs by SRB assay relative to control). Conditions: read-out: GI.
Assay type: functional
For NS(=O)(=O)c1ccc(Nc2nc(N/N=C/c3cccs3)nc(Nc3ccccc3)n2)cc1, the inhibition of growth at 10 µM was 10%.

The molecules below were run on SF-539 (assay: Anticancer activity against human SF-539 cells assessed as cell growth inhibition at 10 uM incubated for 48 hrs by SRB assay relative to control). Conditions: read-out: GI.
Assay type: functional
NS(=O)(=O)c1ccc(Nc2nc(N/N=C/c3cccs3)nc(Nc3ccccc3)n2)cc1 showed an inhibition of growth at 10 µM of 34%.

These molecules were tested on SNB-19 (assay: Anticancer activity against human SNB-19 cells assessed as cell growth inhibition at 10 uM incubated for 48 hrs by SRB assay relative to control). Conditions: read-out: GI.
Assay type: functional
NS(=O)(=O)c1ccc(Nc2nc(N/N=C/c3cccs3)nc(Nc3ccccc3)n2)cc1 gave an inhibition of growth at 10 µM of less than 10%.

Each molecule was assayed on SNB-75 (assay: Anticancer activity against human SNB-75 cells assessed as cell growth inhibition at 10 uM incubated for 48 hrs by SRB assay relative to control). Conditions: read-out: GI.
Assay type: functional
NS(=O)(=O)c1ccc(Nc2nc(N/N=C/c3cccs3)nc(Nc3ccccc3)n2)cc1 gave an inhibition of growth at 10 µM of 16%.
